Laboratory results from patent US20070166299A1, “TREATMENT FOR EMBOLIC STROKE” (priority 2005, published 2007).
Read-outs that look alike come from different tables or passages of the source.

Tests used:
[1] = system: small clot embolic strokes in rabbits; assay: rabbit small clot embolic stroke model (RSCEM), quantal analysis of behavior; type: in vivo
Source text: The invention used a rabbit small clot embolic stroke model (RSCEM) that reproduces many facets of human AIS including a well-defined clinical endpoint. The RSCEM utilizes administration of a suspension of small blood clots to induce strokes, and behavioral deficits that can be measured quantitatively. Moreover, the RSCEM is useful to conduct studies testing the effects of single drugs or drug combinations such as a neuroprotective agent (e.g., NXY-059) plus a thrombolytic (Tenecteplase, Alteplase, Desmoteplase and the like). Since it is likely that a drug combination will be used for patient management it is important to determine whether there are any interactions (positive or negative) between the compounds when administered following embolic strokes.
Methods: Male New Zealand white rabbits were anesthetized using halothane (5% induction, 2% maintenance by facemask), the bifurcation of the right carotid artery was exposed and the external carotid was ligated just distal to the bifurcation, where a catheter was inserted into the common carotid and secured with ligatures. The incision was closed around the catheter with the distal ends left accessible outside the neck; the catheter was filled with heparinized saline and plugged with an injection cap. Rabbits were allowed to recover from anesthesia for a minimum of 3 h until they awoke and behaved normally.
For the RSCEM, microclots were prepared from blood drawn from a donor rabbit and allowed to clot at 37° C. All rabbits in the study received injections of the same sized microclots. For embolization, clot particles were rapidly injected through the carotid catheter and both the syringe and catheter were flushed with 5 ml of normal saline.
Treatment Regimens: (A) Dose-Response Curve: NXY-059 was administered IV at a dose of 0.1-100 mg/kg infused over 30 min beginning 1 hour following embolization. (B) Therapeutic Window: NXY-059 (100 mg/kg) was given beginning 1, 3 or 6 hours following embolization. (C) Tenecteplase Dosing: Tenecteplase was administered IV at a dose of 0.9 mg/kg as a bolus injection given over one minute was administered 1 or 6 hours following embolization. (D) Combination studies: NXY-059 was administered IV at a dose of 100 mg/kg infused over 30 min and Tenecteplase was administered IV at a dose of 0.9 mg/kg beginning 1 or 6 hours following embolization.
Quantal Dose-Response Analysis: For the RSCEM, a quantal dose-response data analysis technique was used. A wide range of lesion volumes is induced to generate both normal and abnormal animals. Using 3 or more different doses of microclots generated each quantal analysis curve. […] Each animal is rated as either normal or abnormal (including dead animals), and inter-rater variability is very low (<5%). […] With this simple rating system, the composite result for a group of animals is quite reproducible. The P50 values are then calculated. These parameters are measures of the amount of microclots (in mg) that produce neurologic dysfunction in 50% of a group of animals. A separate curve is generated for each treatment condition that was tested. The data were analyzed using the t-test, which included the Bonferroni correction where appropriate.
Using the RSCEM model as described above male New Zealand white rabbits weighing 2.2-2.6 Kg were anesthetized and a catheter was inserted into the common carotid artery through which microclots were injected. Briefly, the bifurcation of one carotid artery was exposed and the external carotid was ligated just distal to the bifurcation. A catheter was inserted into the common carotid and secured with ligatures. The incision was closed around the catheter so that the distal end was accessible outside the animal's neck. The catheter was then filled with heparinized saline and plugged with an injection cap. Rabbits were allowed to recover from anesthesia until they were awake and behaving normally. […]

[2] = system: spinal cord ischemia induced by temporary occlusion of the infrarenal aorta; assay: rabbit reversible spinal cord ischemia model (RSCIM); type: in vivo
Method: In a rabbit reversible spinal cord ischemia model (RSCIM). ABHS was administered (25 mg/kg) intravenously (i.v.) 5 or 30 min following the start of occlusion to groups of rabbits exposed to ischemia induced by temporary occlusion of the infrarenal aorta. The group P50 represents the duration of ischemia (min) associated with a 50% probability of resultant permanent paraplegia.

[3] = cited from earlier work
[4] = ABHS 25 mg/kg, 60 min following embolization
[5] = ABHS 25 mg/kg, 180 min following embolization
[6] = ABHS 25 mg/kg i.v., 5 min post-occlusion

CC(C)(C)[N+]([O-])=Cc1ccc(S(=O)(=O)O)cc1S(=O)(=O)O.[Na].[Na] [NXY-059, disodium 2,4-disulfophenyl-N-tert-butylnitrone]
P50 ([1]; NXY-059 100 mg/kg IV, 1 hour following embolization, measured 24 hours after embolization): 2.81 ± 0.46 mg
P50 ([1]; NXY-059 100 mg/kg, 3 hours following embolization): 1.78 ± 0.42 mg
increase of P50 over vehicle control ([1]; NXY-059 1-100 mg/kg administered following embolization): 100-134%
effect on P50 (dose-response) ([1]; NXY-059 doses from 1-100 mg/kg, 1 hour following embolization): significantly increased the P50

O=c1c(O)c(-c2ccc(O)c(O)c2)oc2cc(O)ccc12 [Fisetin, fisetin]
P50 ([1]; Fisetin 50 mg/kg IV, 5 minutes following embolization): 2.18 ± 0.42 mg

CC(=O)[C@H]1CC[C@H]2[C@@H]3CC[C@@H]4C[C@H](OC(=O)CCC(=O)O)CC[C@]4(C)[C@H]3CC[C@]12C [ABHS, 3-alpha-ol-5-beta-pregnan-20-one hemisuccinate]
Observation ([1]; ABHS 25 mg/kg, 5 min following embolization): Sedation
Observation [1, 4]: Sedation
P50 [1, 4]: 1.05 ± 0.24 mg
Observation [1, 5]: Sedation
P50 [1, 5]: 1.42 ± 0.35 mg
effect on therapeutic window for tPA ([1]; ABHS with tPA (FIG. 7)): increases the therapeutic window for tPA
duration of sedation (loss of righting reflex) after drug injection ([1]; IV ABHS administration to rabbits): 2 to 3 h
P50 (duration of ischemia associated with 50% probability of permanent paraplegia) [2, 6]: 49.18 ± 10.44 min
increase of P50 over control [2, 6]: 110%
tolerance to ischemia ([2]; ABHS administered 30 min following the start of occlusion): increased the tolerance to ischemia
persistence of effect ([2]; ABHS injected 5 min following the start of ischemia and again 24 h after ischemia): persistent effect of the drug at 48 h

O=C(C=Cc1ccc(O)c(O)c1)OC1CC(O)(C(=O)O)CC(O)C1O (stereo not drawn) [CGA, 3-[[3-(3,4-Dihydroxyphenyl)-1-oxo-2-propenyl]oxy] 1,4,5-trihydroxycyclohexanecarboxylic acid]
P50 ([1]; CGA 50 mg/kg IV, 5 minutes following embolization, behavior 24 hours): 3.61 ± 0.52 mg
P50 ([1]; CGA 50 mg/kg single bolus, 1 hour post-embolization): 2.57 ± 0.28 mg
P50 ([1]; CGA 50 mg/kg, 3 hours following embolization): 1.22 ± 0.24 mg

O=c1cc(-c2ccccc2)oc2cc(O)c(O)c(O)c12 [Baicalein, 5,6,7 trihydroxyflavone]
P50 ([1]; Baicalein 100 mg/kg SC, 5 minutes following embolization): 2.85 ± 0.64 mg

CC12CC3CC(C)(C1)CC(N)(C3)C2 [memantine]
effect on efficacy of low-dose tPA ([1]; memantine with low-dose tPA (FIG. 8)): increases the efficacy of low-dose tPA: synergy

tPA: thrombolytic, tissue plasminogen activator; FDA-approved treatment for acute ischemic stroke
P50 ([1]; low-dose tPA 0.9 mg/kg alone, 60 min following embolization): 1.25 ± 0.25 mg
P50 ([1]; tPA 3.3 mg/kg alone, 60 min after embolization (ABHS study)): 2.69 ± 0.19 mg
P50 ([1]; tPA 3.3 mg/kg, 1 hour after embolization (CGA study)): 2.89 ± 0.29 mg
P50 ([1]; tPA 3.3 mg/kg, 3 hours after embolization (CGA study)): 1.54 ± 0.27 mg
increase of hemorrhage rate ([3]; high dose of tPA 3.3 mg/kg): 52%
increase of hemorrhage rate ([3]; low dose of tPA 0.9 mg/kg): 28%
